Assay results taken from ChEMBL document CHEMBL1201862, “PubChem BioAssay data set” (2004).
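Following 48 hours of exposure in 96-well plates, responses at five concentrations were used to interpolate endpoints linearly. The concentration for 50% growth inhibition is given as GI50.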 Active and inactive are the calls of the source. No stated cut-off is given here; in the data, active = GI50 up to about 1.1 µM and inactive = higher.

Legend:
Assay in all cases: NCI tumour cell line growth inhibition, 48 h
[1] = test system: MCF7
[2] = test system: SNB-19
[3] = test system: U-251
[4] = test system: MOLT-4
[5] = test system: EKVX
[6] = test system: NCI-H522
[7] = test system: HOP-92
[8] = test system: UACC-62
[9] = test system: SN12C
[10] = test system: SF-539
[11] = test system: SNB-75
[12] = test system: SK-MEL-5
[13] = test system: MDA-N
[14] = test system: UO-31
[15] = test system: A549
[16] = test system: RPMI-8226
[17] = test system: K562
[18] = test system: T47D
[19] = test system: NCI-H226
[20] = test system: RXF 393

| SMILES | GI50 [1] | GI50 [2] | GI50 [3] | GI50 [4] | GI50 [5] | GI50 [6] | GI50 [7] | GI50 [8] | GI50 [9] | GI50 [10] | GI50 [11] | GI50 [12] | GI50 [13] | GI50 [14] | GI50 [15] | GI50 [16] | GI50 [17] | GI50 [18] | GI50 [19] | GI50 [20] |
| --- | --- | --- | --- | --- | --- | --- | --- | --- | --- | --- | --- | --- | --- | --- | --- | --- | --- | --- | --- | --- |
| COc1ccc(/C=C2\C(=O)NC(=O)c3ccccc32)cc1OC | 56.9 µM (inactive) | 25.5 µM (inactive) | 11.8 µM (inactive) | 5.77 µM (inactive) | 31.6 µM (inactive) | 16.2 µM (inactive) | 7.96 µM (inactive) | 25.6 µM (inactive) | 42.3 µM (inactive) | 9.12 µM (inactive) | 37.4 µM (inactive) | 37.7 µM (inactive) | > 43.6 µM (inactive) | 29.9 µM (inactive) | 48.2 µM (inactive) | 5.47 µM (inactive) | 3.15 µM (inactive) | > 100 µM (inactive) | 49.4 µM (inactive) | 12.2 µM (inactive) |
| O=[N+]([O-])c1cccc2nc3ccccc3c(NCCO)c12 | 0.0021 µM (active) | 0.00977 µM (active) | 0.00281 µM (active) | 0.00407 µM (active) | 0.00111 µM (active) | 0.00248 µM (active) | 0.0016 µM (active) | 0.00237 µM (active) | 0.00197 µM (active) | 0.00262 µM (active) | 0.00164 µM (active) | 0.00286 µM (active) | 0.002 µM (active) | 0.00244 µM (active) | 0.0034 µM (active) | 0.000682 µM (active) | 0.000237 µM (active) | 0.000611 µM (active) | 0.00248 µM (active) | 0.00169 µM (active) |
| O=C1N(Cc2ccccc2)C2CSCC2N1Cc1ccccc1 (stereo not given) | 31.4 µM (inactive) | 63.2 µM (inactive) | 35.3 µM (inactive) | 37.5 µM (inactive) | 21.1 µM (inactive) | 3.94 µM (inactive) | 23 µM (inactive) | 27.4 µM (inactive) | 33.7 µM (inactive) | 24.5 µM (inactive) | 41.9 µM (inactive) | 15.4 µM (inactive) | 30.2 µM (inactive) | 24 µM (inactive) | 40 µM (inactive) | 23.5 µM (inactive) | 55.5 µM (inactive) | 27.2 µM (inactive) | 24.1 µM (inactive) | 20.6 µM (inactive) |
| N#Cc1c(O)c(/N=N/c2ccc(Cl)cc2)c(=O)n2c1[nH]c1ccccc12 | 43.5 µM (inactive) | 47.3 µM (inactive) | 37.5 µM (inactive) | 29.6 µM (inactive) | > 100 µM (inactive) | 33.3 µM (inactive) | 26.1 µM (inactive) | 29.7 µM (inactive) | 46.5 µM (inactive) | 53.8 µM (inactive) | 37.7 µM (inactive) | 53.7 µM (inactive) | 38.7 µM (inactive) | 49.9 µM (inactive) | 44.9 µM (inactive) | 21.5 µM (inactive) | 32.6 µM (inactive) | 27.1 µM (inactive) | 81.8 µM (inactive) | 53.8 µM (inactive) |
| O=C(COc1cc(=O)oc2ccccc12)c1ccccc1 | > 100 µM (inactive) | 21.7 µM (inactive) | 17.7 µM (inactive) | > 100 µM (inactive) | > 100 µM (inactive) | 32.4 µM (inactive) | 16.7 µM (inactive) | 16.7 µM (inactive) | > 100 µM (inactive) | 21.5 µM (inactive) | 26.4 µM (inactive) | 37.7 µM (inactive) | 47 µM (inactive) | > 10 µM (inactive) | 97.3 µM (inactive) | > 100 µM (inactive) | > 100 µM (inactive) | 25.4 µM (inactive) | 19.1 µM (inactive) | > 10 µM (inactive) |
| O=C(/C=C/c1ccc([N+](=O)[O-])cc1)c1nc2ccccc2[nH]1 | 2.21 µM (inactive) | > 93.3 µM (inactive) | 13.2 µM (inactive) | 25.2 µM (inactive) | 61.5 µM (inactive) | 32.9 µM (inactive) | 45.5 µM (inactive) | 5.89 µM (inactive) | > 100 µM (inactive) | 26.9 µM (inactive) | 45.3 µM (inactive) | 52.2 µM (inactive) | 72.1 µM (inactive) | > 69.8 µM (inactive) | > 45.9 µM (inactive) | 5.73 µM (inactive) | 3.66 µM (inactive) | 29.2 µM (inactive) | 1.05 µM (active) | 40.8 µM (inactive) |
| O=C(O)CC(Nc1ccccc1)C(=O)O (stereo not given) | > 100 µM (inactive) | > 100 µM (inactive) | > 100 µM (inactive) | > 100 µM (inactive) | > 100 µM (inactive) | > 100 µM (inactive) | > 100 µM (inactive) | > 100 µM (inactive) | > 100 µM (inactive) | > 100 µM (inactive) | > 100 µM (inactive) | > 100 µM (inactive) | > 100 µM (inactive) | > 100 µM (inactive) | > 100 µM (inactive) | > 100 µM (inactive) | > 100 µM (inactive) | > 100 µM (inactive) | > 100 µM (inactive) | > 100 µM (inactive) |
